{"source": "patent US11541027B2", "about": "(DelMar Pharmaceuticals, Inc., priority 2014, dated 2023)", "key": {"RIF-1 cell-line": {"test_system": "RIF-1 cell-line", "assay": "Standard syngeneic mouse fibrosarcoma model, tumor growth delay", "type": "in vivo", "conditions": "10 mg/kg, single IP injection, RIF-1 in C3H mice; for Tumor Delay: vs untreated"}, "[1]": {"test_system": "NSCLC cell lines other than H460", "assay": "Cytotoxicity in NSCLC tumor models, range over the cell lines other than H460", "type": "cell-based, human", "conditions": "NSCLC cell lines other than H460, single agents"}, "H1299": {"test_system": "H1299", "assay": "Cytotoxicity in NSCLC tumor models", "type": "cell-based, human", "conditions": "H1299, p53 null; N = 3", "text": "(§1) The cell lines include cell lines with wild-type p53, cell lines with mutant p53, and cell lines in which p53 has been knocked out (“null”). The properties of these cell lines are described in F. Bunz et al., “Requirement for p53 and p21 to Sustain G2 Arrest After DNA Damage,” Science 282: 1497-1501 (1998), incorporated herein by this reference."}, "SkLU1": {"test_system": "SkLU1", "assay": "Cytotoxicity in NSCLC tumor models", "type": "cell-based, human", "conditions": "SkLU1, p53 mu; N = 3", "text": "as §1"}, "H226": {"test_system": "H226", "assay": "Cytotoxicity in NSCLC tumor models", "type": "cell-based, human", "conditions": "H226, p53 wt; N = 3", "text": "as §1"}, "H1975": {"test_system": "H1975", "assay": "Cytotoxicity in NSCLC tumor models", "type": "cell-based, human", "conditions": "H1975, p53 mu; N = 3", "text": "as §1"}, "H2122": {"test_system": "H2122", "assay": "Cytotoxicity in NSCLC tumor models", "type": "cell-based, human", "conditions": "H2122, p53 mu; N = 3", "text": "as §1"}, "H838": {"test_system": "H838", "assay": "Cytotoxicity in NSCLC tumor models", "type": "cell-based, human", "conditions": "H838, p53 wt; N = 3", "text": "as §1"}, "A549": {"test_system": "A549", "assay": "Cytotoxicity in NSCLC tumor models", "type": "cell-based, human", "conditions": "A549, p53 wt; N = 3", "text": "as §1"}, "H460": {"test_system": "H460", "assay": "Cytotoxicity in NSCLC tumor models", "type": "cell-based, human", "conditions": "H460, p53 wt; N = 3; listed as DAG", "text": "as §1"}, "H157": {"test_system": "H157", "assay": "Cytotoxicity in NSCLC tumor models", "type": "cell-based, human", "conditions": "H157, p53 mu; N = 3", "text": "as §1"}, "2780-CP": {"test_system": "2780-CP", "assay": "5-day MTT cytotoxicity, wild-type p53 ovarian tumor panel", "type": "cell-based, human", "conditions": "wt-p53, cisplatin-resistant, N = 3, read-out: DAG IC50 (μM) Mean", "text": "(§2) The ovarian tumor panel lines are as follows: • is A2780; ▪ is 2780-CP16; ▴ is OVCAR-10; ▾ is HEY; and ♦ is OVCA-433. Dose-response curves were undertaken using a 5-day MTT assay to determine cell viability. The A2780 represents a cisplatin-sensitive model, whereas the other four cell lines are cisplatin-resistant. The cell line 2780-CP16 was derived for cisplatin resistance from A2780. The properties of some of these cell lines are disclosed in G. S. Hagopian et al., “Expression of p53 in Cisplatin-Resistant Ovarian Cell Lines: Modulation with the Novel Platinum Analog (1R,2R-Diaminocyclohexane)(trans-diacetato)(dichloro)-platinum(IV),” Clin. Cancer Res. 5: 655-663 (1999), and in Z. H. Siddik et al., “Independent Pathways of p53 Induction by Cisplatin and X-Rays in a Cisplatin-Resistant Cell Line,” Cancer Res. 58: 698-703 (1998), both incorporated herein by this reference.\n(§3) The data of FIG. 7 are shown in Table 8 in terms of the IC50 of dianhdrogalactitol in the wild-type p53 human ovarian tumor panel."}, "Hey": {"test_system": "Hey", "assay": "5-day MTT cytotoxicity, wild-type p53 ovarian tumor panel", "type": "cell-based, human", "conditions": "wt-p53, cisplatin-resistant, N = 3, read-out: DAG IC50 (μM) Mean", "text": "as §2, §3"}, "A2780": {"test_system": "A2780", "assay": "5-day MTT cytotoxicity, wild-type p53 ovarian tumor panel", "type": "cell-based, human", "conditions": "A2780, wt-p53, cisplatin-sensitive, N = 3, read-out: DAG IC50 (μM) Mean", "text": "as §2, §3"}, "Ovcar-10": {"test_system": "Ovcar-10", "assay": "5-day MTT cytotoxicity, wild-type p53 ovarian tumor panel", "type": "cell-based, human", "conditions": "Ovcar-10, wt-p53, cisplatin-resistant, N = 3, read-out: DAG IC50 (μM) Mean", "text": "as §2, §3"}, "OVCA-433": {"test_system": "OVCA-433", "assay": "5-day MTT cytotoxicity, wild-type p53 ovarian tumor panel", "type": "cell-based, human", "conditions": "OVCA-433, wt-p53, cisplatin-resistant, N = 3, read-out: DAG IC50 (μM) Mean", "text": "as §2, §3"}, "[2]": {"assay": "Stability of reconstituted dianhydrogalactitol stock solution", "type": "physicochemical", "conditions": "8 mg/mL in 0.9% sodium chloride for injection", "procedure": "For administration, 5 mL of 0.9% sodium chloride for injection, USP (saline) was added to yield a DAG solution with a concentration of 8 mg/mL."}, "[3]": {"test_system": "H1975 (TKI-resistant) human lung adenocarcinoma xenograft tumors", "assay": "H1975 NSCLC xenograft tumor model in female Rag2 mice", "experimental": "Rag2 mice bearing subcutaneous human lung adenocarcinoma xenograft tumors of either TKI-resistant (H1975) or TKI-sensitive (A549) origin were treated.\nTwo human NSCLC cell lines, A549 (TKI-sensitive) and H1975 (TKI-resistant), were used as xenograft tumor models in female Rag2 mice. The mice were 6 to 8 weeks of age and weighed 18-23 grams. 10 mice were used per group.\nRag2 mice bearing subcutaneous human lung adenocarcinoma xenograft tumors of either TKI-sensitive (A549) or TKI-resistant (H1975) origin were treated. […] Saline was used as control treatment. Disease progression was evaluated by tumor volume, clinical observations and body weight measurements. Blood samples were analyzed for CBC/differential analyses to assess myelosuppression or other changes in blood chemistry.\nCell number for inoculation was 5×10^6 cells for A549 cells in an injection volume of 50 μL per animal. For H1975 cells, cell number for inoculation was 2×10^6 cells in an injection volume of 50 μL per animal.\nTreatment was initiated at average tumor volume of 100-150 mm^3.\nTumor growth delay (TGD) was calculated according to Equation (2): TGD=DTtx−DTcontrol (2).\nFor these calculations, TV is tumor volume, tx is treatment, int is initial, DT is doubling time for mean tumor volume from 200 mm^3 to 400 mm^3 for A549 or from 300 mm^3 to 600 mm^3 for H1975. MTV is mean tumor volume in mm^3 and TCR is tumor control ratio.\nDisease progression was evaluated by tumor volume, clinical observations and body weight measurements."}, "[4]": {"conditions": "4 mg/kg i.p., stopped after 6 doses"}}, "data": [{"substance": "dianhydrogalactitol", "values": [{"measurement": "Days to 4 × Median Tumor Size", "setting": "RIF-1 cell-line", "result": 11.45, "unit": "days"}, {"measurement": "Tumor Delay", "setting": "RIF-1 cell-line", "result": 5.16, "unit": "days"}, {"measurement": "Tumor Delay", "setting": "RIF-1 cell-line; listed as dianhydrogalactitol", "result": 5.6, "unit": "days"}, {"measurement": "IC50", "setting": "[1]", "result": "0.9 to 6.1", "unit": "µM"}, {"measurement": "IC50", "setting": "H1299", "result": 2.37, "unit": "µM"}, {"measurement": "IC50", "setting": "SkLU1", "result": 2.72, "unit": "µM"}, {"measurement": "IC50", "setting": "H226", "result": 6.11, "unit": "µM"}, {"measurement": "IC50", "setting": "H1975", "result": 0.9, "unit": "µM"}, {"measurement": "IC50", "setting": "H2122", "result": 2.84, "unit": "µM"}, {"measurement": "IC50", "setting": "H838", "result": 4.52, "unit": "µM"}, {"measurement": "IC50", "setting": "A549", "result": 1.75, "unit": "µM"}, {"measurement": "IC50", "setting": "H460", "result": 0.49, "unit": "µM"}, {"measurement": "IC50", "setting": "H157", "result": 4.48, "unit": "µM"}, {"measurement": "IC50", "setting": "2780-CP", "result": 2.2, "unit": "µM"}, {"measurement": "IC50", "setting": "Hey", "result": 2.1, "unit": "µM"}, {"measurement": "IC50", "setting": "A2780", "result": 0.54, "unit": "µM"}, {"measurement": "IC50", "setting": "Ovcar-10", "result": 3.6, "unit": "µM"}, {"measurement": "IC50", "setting": "OVCA-433", "result": 2.3, "unit": "µM"}, {"measurement": "time for which the stock solution was stable", "setting": "[2]; 4° C.", "result": 24, "unit": "h"}, {"measurement": "time for which the stock solution was stable", "setting": "[2]; room temperature", "result": 4, "unit": "h"}, {"measurement": "MTV at Day 31", "setting": "[3]; 2 mg/kg i.p. M, W, F × 3", "result": 396, "unit": "mm^3"}, {"measurement": "Median survival", "setting": "[3]; 2 mg/kg i.p. M, W, F × 3", "result": 31, "unit": "days"}, {"measurement": "TCR at Day 31", "setting": "[3]; 2 mg/kg i.p. M, W, F × 3, tumor control ratio", "result": 0.87}, {"measurement": "MTV at Day 31", "setting": "[3]; 3 mg/kg i.p. M, W, F × 3", "result": 383, "unit": "mm^3"}, {"measurement": "Median survival", "setting": "[3]; 3 mg/kg i.p. M, W, F × 3", "result": 31, "unit": "days"}, {"measurement": "TCR at Day 31", "setting": "[3]; 3 mg/kg i.p. M, W, F × 3, tumor control ratio", "result": 0.84}, {"measurement": "body weight", "setting": "[3]; 4 mg/kg i.p. (group 5), treatment stopped after 6 doses, mice then quickly recovered", "result": "significant body weight loss"}, {"measurement": "MTV at Day 31", "setting": "[3]; [4]", "result": 262, "unit": "mm^3"}, {"measurement": "Median survival", "setting": "[3]; [4]", "result": 41, "unit": "days"}, {"measurement": "TCR at Day 31", "setting": "[3]; 4 mg/kg i.p., stopped after 6 doses, tumor control ratio", "result": 0.57}]}]}
